Data as given in US20040248844A1, “Method for the treatment or prevention of Flavivirus infections using nucleoside analogues” (priority 2000, published 2004).

These compounds were tested against T1, HCV RNA-dependent RNA polymerase (NS5B protein) (Hepatitis C virus genotype 1b, UniProt P26663) (assay: HCV RNA-dependent RNA polymerase assay (in vitro RdRp assay, heteropolymeric RNA template)). Details: natural NTP substrates of purified NS5B in the RdRp assay.
T1 construct: The cDNA encoding the entire NS5B protein of HCV-Bk strain, genotype 1b; initiator Met (ATG added before the NS5B coding region) (N); made in house; host or cells: Sf9 insect cells, recombinant baculovirus (pBlueBacII, BacNS5B)
T1 sequence (P26663 2420-3010): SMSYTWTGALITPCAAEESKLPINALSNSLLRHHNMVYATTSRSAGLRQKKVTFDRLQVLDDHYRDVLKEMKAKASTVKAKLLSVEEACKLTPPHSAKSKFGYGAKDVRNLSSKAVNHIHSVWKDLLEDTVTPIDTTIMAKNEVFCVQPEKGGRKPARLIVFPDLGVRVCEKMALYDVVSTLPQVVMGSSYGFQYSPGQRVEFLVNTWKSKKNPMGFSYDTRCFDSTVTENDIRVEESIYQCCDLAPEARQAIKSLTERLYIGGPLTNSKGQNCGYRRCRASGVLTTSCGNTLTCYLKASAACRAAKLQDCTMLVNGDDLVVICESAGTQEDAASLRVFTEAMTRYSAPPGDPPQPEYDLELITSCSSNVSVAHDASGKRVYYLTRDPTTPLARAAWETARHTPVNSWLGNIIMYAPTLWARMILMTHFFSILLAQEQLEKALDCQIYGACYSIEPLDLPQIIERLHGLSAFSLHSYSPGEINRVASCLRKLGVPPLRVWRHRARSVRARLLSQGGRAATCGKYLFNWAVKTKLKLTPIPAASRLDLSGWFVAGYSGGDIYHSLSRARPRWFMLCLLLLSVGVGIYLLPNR
Assay type: biochemical, HCV-Bk strain
Description: Compounds were evaluated using an in vitro polymerase assay containing purified recombinant HCV RNA-dependent RNA polymerase (NS5B protein). HCV NS5B was expressed in insect cells using a recombinant baculovirus as vector. The experimental procedures used for the cloning, expression and purification of the HCV NS5B protein are described below. Following are details of the RNA-dependent RNA polymerase assays used to test the compounds.
The cDNA encoding the entire NS5B protein of HCV-Bk strain, genotype 1b, was amplified by PCR using a plasmid containing a cDNA version of the full-length HCV genome as template. The oligonucleotides used to amplify this HCV region were designed to introduce a NheI site followed by an ATG at the 5′ end of the NS5B coding region as well as a BamHI site at the 3′end immediately downstream of the translation stop codon. The amplified sequence, of 1.8 kb, was digested with NheI and BamHI and ligated to a predigested pBlueBacII plasmid (Invitrogen). The resulting recombinant plasmid was designated pBac/NS5B. Sf9 cells were co-transfected with 3 μg of pBac/NS5B, together with 1 μg of linearized baculovirus DNA (Invitrogen), as described in the manufacturer's protocol. Following two rounds of plaque purification, an NS5B-recombinant baculovirus, BacNS5B, was isolated. The presence of the recombinant NS5B protein was determined by western blot analysis (Harlow and Lane, 1988) of BacNS5B-infected Sf9 cells, using a HCV NS5B specific rabbit polyclonal antiserum (anti-NS5B). Infections of Sf9 cells with this plaque purified virus were performed in one-liter spinner flasks at a cell density of 1.2×10^6 cells/ml and a multiplicity of infection of 5.
Sf9 cells were infected as described above. Sixty hours post-infection, cells were harvested then washed twice with phosphate buffer saline (PBS). Total proteins were solubilized as described in Lohmann et al. […] with some modifications. In brief, proteins were extracted in three steps, S1, S2, S3, using lysis buffers (LB) I, LB II and LB III (Lohmann et al, 1997). The composition of LBII was modified to contain 0.1% triton X-100 and 150 mM NaCl to reduce the amount of solubilized NS5B protein at this step. In addition, sonication of cell extracts was avoided throughout the protocol to preserve the integrity of the protein structure.
Soluble NS5B protein in the S3 fraction was diluted to lower the NaCl concentration to 300 mM, then it incubated batchwise with DEAE sepharose beads (Amersham-Pharmacia) for 2 hrs at […], as described by Behrens et al. (1989). Unbound material was cleared by centrifugation for 15 min at 4° C., at 25 000 rpm using a SW41 rotor (Beckman). The supernatant was further diluted to lower the NaCl concentration to 200 mM and subsequently loaded, with a flow rate of 1 ml/min, on a 5 ml HiTrap® heparin column (Amersham-Pharmacia) connected to an FPLC® system (Amersham-Pharmacia). Bound proteins were eluted in 1 ml fractions, using a continuous NaCl gradient of 0.2 to 1 M, over a 25 ml volume. NS5B-containing fractions were identified by sodium dodecyl sulfate polyacrylamide gel electrophoresis (SDS-PAGE), followed by western blotting using the anti-NS5B antiserum at a dilution of 1:2000. Positive fractions were pooled and the elution buffer was exchanged against a 50 mM NaPO4 pH 7.0, 20% glycerol, 0.5% triton X-100 and 10 mM DTT, using a PD-10 column (Amersham-Pharmacia). The sample was then loaded onto a 1 ml HiTrap® SP column (Amersham-Pharmacia), with a flow rate of 0.1 ml/min. Bound proteins were eluted using a continuous 0 to 1 M NaCl gradient over a 15 ml volume. Eluted fractions were analyzed by SDS-PAGE and western blotting. Alternatively, proteins were visualized, following SDS-PAGE, by silver staining using the Silver Stain Plus kit (BiORad) as described by the manufacturer.
RdRp assays were conducted using in vitro transcribed heteropolymeric RNA templates. […]
With `Nc1ncnc2c1ncn2[C@@H]1O[C@H](COP(=O)(O)OP(=O)(O)OP(=O)(O)O)[C@@H](O)[C@H]1O` [ATP, reference compound] the “measured Kms for the four substrates” value was 18 µM.
`Nc1ccn([C@@H]2O[C@H](COP(=O)(O)OP(=O)(O)OP(=O)(O)O)[C@@H](O)[C@H]2O)c(=O)n1` [CTP, reference compound] was tested, and the “measured Kms for the four substrates” value was 0.5 µM.
`Nc1nc2c(ncn2[C@@H]2O[C@H](COP(=O)(O)OP(=O)(O)OP(=O)(O)O)[C@@H](O)[C@H]2O)c(=O)[nH]1` [GTP, reference compound] was tested, and the “measured Kms for the four substrates” value was 0.5 µM.
With `O=c1ccn([C@@H]2O[C@H](COP(=O)(O)OP(=O)(O)OP(=O)(O)O)[C@@H](O)[C@H]2O)c(=O)[nH]1` [UTP, reference compound] the “measured Kms for the four substrates” value was 1.2 µM.

Same assay, conditions: purified recombinant NS5B 200 ng; competing NTP at twice Km, other NTPs 100 μM; 2 h at 22° C.; triphosphate form tested
“6-Chloro- 3′-deoxyguanosine- 5′triphosphate [COMPOUND#32]” showed an IC50 of 6800 nM.
Work on `Nc1ccn([C@@H]2O[C@H](COP(=O)(O)OP(=O)(O)OP(=O)(O)O)C[C@H]2O)c(=O)n1` [COMPOUND#2, 3′-deoxycytidine-5′triphosphate] yielded an IC50 of 36 nM.
Compound `Nc1nc(=O)n([C@@H]2O[C@H](COP(=O)(O)OP(=O)(O)OP(=O)(O)O)C[C@H]2O)cc1F` [COMPOUND#4, 5-Fluoro-3′-deoxycytidine-5′triphosphate] has an IC50 of 300 nM.
For `O=c1ccn([C@@H]2O[C@H](COP(=O)(O)OP(=O)(O)OP(=O)(O)O)C[C@H]2O)c(=O)[nH]1` [COMPOUND#6, 3′-deoxyuridine-5′triphosphate], the IC50 was 260 nM.
`O=c1[nH]c(=O)n([C@@H]2O[C@H](COP(=O)(O)OP(=O)(O)OP(=O)(O)O)C[C@H]2O)cc1F` [COMPOUND#8, 5-Fluoro-3′-deoxyuridine-5′triphosphate] gave an IC50 of 1980 nM.
`Cc1cn([C@H]2CC[C@@H](COP(=O)(O)OP(=O)(O)OP(=O)(O)O)O2)c(=O)[nH]c1=O` [COMPOUND#10, 3′-deoxythymidine-5′triphosphate] gave an IC50 of 6400 nM.
With `Nc1nc2c(ncn2[C@@H]2O[C@H](COP(=O)(O)OP(=O)(O)OP(=O)(O)O)C[C@H]2O)c(=O)[nH]1` [COMPOUND#12, 3′-deoxyguanosine-5′triphosphate] the IC50 was 48 nM.
`CC(=O)Nc1nc2c(ncn2[C@@H]2O[C@H](COP(=O)(O)OP(=O)(O)OP(=O)(O)O)C[C@H]2O)c(=O)[nH]1` [COMPOUND#14, 2-N-acetyl-3′-deoxyguanosine-5′triphosphate] was tested, and the IC50 was 3100 nM.
`Cc1cn([C@@H]2O[C@H](COP(=O)(O)OP(=O)(O)OP(=O)(O)O)C[C@H]2O)c(=O)nc1N` [COMPOUND#16, 5-Methyl-3′-deoxycytidine-5′triphosphate] was tested, and the IC50 was 360 nM.
`Nc1nc(=O)n([C@@H]2O[C@H](COP(=O)(O)OP(=O)(O)OP(=O)(O)O)C[C@H]2O)cc1I` [COMPOUND#18, 5-Iodo-3′-deoxycytidine-5′triphosphate] showed an IC50 of 6880 nM.
`Nc1nc(=O)n([C@@H]2O[C@H](COP(=O)(O)OP(=O)(O)OP(=O)(O)O)C[C@H]2O)cc1Cl` [COMPOUND#20, 5- = Chloro-3′-deoxycytidine-5′triphosphate] gave an IC50 of 180 nM.
Work on `Nc1nc(O)c2ncn([C@@H]3O[C@H](COP(=O)(O)OP(=O)(O)OP(=O)(O)O)[C@@H](F)[C@H]3O)c2n1` [COMPOUND#22, 3′-fluoro-3′-deoxyguanosine-5′triphosphate] yielded an IC50 of 120 nM.
Work on `Nc1ccn([C@@H]2O[C@H](COP(=O)(O)OP(=O)(O)OP(=O)(O)O)[C@@H](F)[C@H]2O)c(=O)n1` [COMPOUND#24, 3′-fluoro-3′-deoxycytidine-5′triphosphate] yielded an IC50 of 55 nM.
`O=c1[nH]c(=O)n([C@@H]2O[C@H](COP(=O)(O)OP(=O)(O)OP(=O)(O)O)C[C@H]2O)cc1Cl` [COMPOUND#28, 5-Chloro-3′-deoxyuridine-5′triphosphate] gave an IC50 of 2100 nM.
`O=c1[nH]c(=O)n([C@@H]2O[C@H](COP(=O)(O)OP(=O)(O)OP(=O)(O)O)C[C@H]2O)cc1Br` [COMPOUND#30, 5-Bromo-3′-deoxyuridine-5′triphosphate] was tested, and the IC50 was 2900 nM.
`[N-]=[N+]=N[C@H]1[C@@H](O)[C@H](n2ccc(N)nc2=O)O[C@@H]1COP(=O)(O)OP(=O)(O)OP(=O)(O)O` [COMPOUND#54, 3′-azido-3′-deoxycytidine 5′triphosphate] gave an IC50 of 9000 nM.
`Nc1nc(=O)n([C@@H]2O[C@H](COP(=O)(O)OP(=O)(O)OP(=O)(O)O)C[C@H]2O)cc1I` [COMPQUND#26, 5- = Iodp-3′-deoxycytidine-5′triphosphate] showed an IC50 of 910 nM.
